Results as given in US11161856B2 (H. Lundbeck A/S, priority 2017, dated 2021).

How the values were obtained:
[1] = molecular target: T1, MGLL (Mus musculus, UniProt O35678); assay: In vitro competitive activity-based protein profiling, mouse brain proteome (MGLL); type: biochemical; design: IC50 MGLL Brain (Mouse, μM): scale not given here; conditions: for % Inh MGLL Brain (Mouse, μM): concentration not given (μM)
T1 construct: Brain; from tissue; host or cells: mouse brain proteome
T1 sequence (O35678 1-303): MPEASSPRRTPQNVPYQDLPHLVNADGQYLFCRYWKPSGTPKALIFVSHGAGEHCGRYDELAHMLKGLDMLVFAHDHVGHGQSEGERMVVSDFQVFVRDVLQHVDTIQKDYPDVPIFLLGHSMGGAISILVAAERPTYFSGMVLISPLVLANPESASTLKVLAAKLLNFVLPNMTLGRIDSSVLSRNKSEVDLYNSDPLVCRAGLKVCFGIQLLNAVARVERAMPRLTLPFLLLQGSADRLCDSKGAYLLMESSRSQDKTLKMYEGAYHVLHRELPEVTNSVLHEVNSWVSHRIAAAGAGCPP

[2] = molecular target: T2, ABHD6 (Mus musculus, UniProt Q8R2Y0); assay: In vitro competitive activity-based protein profiling, mouse brain proteome (ABHD6); type: biochemical; conditions: mouse brain proteome; concentration not given (μM)
T2 construct: Brain; from tissue; host or cells: mouse brain proteome
T2 sequence (Q8R2Y0 1-336): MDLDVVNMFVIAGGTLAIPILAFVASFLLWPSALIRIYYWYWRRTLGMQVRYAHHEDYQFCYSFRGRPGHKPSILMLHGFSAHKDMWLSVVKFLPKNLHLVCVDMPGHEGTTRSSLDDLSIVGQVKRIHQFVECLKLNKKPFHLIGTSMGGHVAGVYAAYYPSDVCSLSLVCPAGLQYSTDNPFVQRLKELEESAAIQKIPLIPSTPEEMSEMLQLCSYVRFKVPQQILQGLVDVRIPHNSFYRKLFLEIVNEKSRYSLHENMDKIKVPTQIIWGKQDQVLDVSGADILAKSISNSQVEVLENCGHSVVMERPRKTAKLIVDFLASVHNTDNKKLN
Experimental: [The source words this procedure for another target and reports this target under the same test.] In Vitro Competitive Activity-Based Protein Profiling.
Proteomes (human prefrontal cortex or cell membrane fractions) (50 μL, 1.0 mg/mL total protein concentration) were preincubated with varying concentrations of inhibitors at 37° C. After 30 min, FP-Rh or HT-01 (1.0 μL, 50 μM in DMSO) was added and the mixture was incubated for another 30 min at room temperature. Reactions were quenched with SDS loading buffer (15 μL-4×) and run on SDS-PAGE.

| SMILES | % Inh MGLL Brain (Mouse, μM) [1] | % Inh ABHD6 Brain (Mouse, μM) [2] | IC50 MGLL Brain (Mouse, μM) [1] |
| --- | --- | --- | --- |
| CN1CCCC12CCN(c1cc(Cl)ccc1CN1CCN(C(=O)OC(C(F)(F)F)C(F)(F)F)CC1)CC2 [Example 214, 1,1,1,3,3,3-Hexafluoropropan-2-yl 4-(4-chloro-2-(1-methyl-1,8-diazaspiro[4.5]decan-8-yl)benzyl)piperazine-1-carboxylate] | ### (### is ≥75%) | # (# is ≤25%) | – |
| Cc1ccc(CN2CC3(CCN(C(=O)OC(C(F)(F)F)C(F)(F)F)CC3)C2)cc1 [Example 84, 1,1,1,3,3,3-Hexafluoropropan-2-yl 2-(4-methylbenzyl)-2,7-diazaspiro[3.5]nonane-7-carboxylate] | ### (### is ≥75%) | ### (### is ≥75%) | – |
| CS(=O)(=O)N1CCC2(CCN(c3cc(C(F)(F)F)ccc3CN3CCC4(CCN(C(=O)OC(C(F)(F)F)C(F)(F)F)C4)C3)CC2)C1 (stereo not drawn) [Example 242, 1,1,1,3,3,3-Hexafluoropropan-2-yl 7-(2-(2-(methylsulfonyl)-2,8-diazaspiro[4.5]decan-8-yl)-4-(trifluoromethyl)benzyl)-2,7-diazaspiro[4.4]nonane-2-carboxylate] | ### (### is ≥75%) | ## (## is between 25 and 75%) | – |
| CS(=O)(=O)N1CC2(CCN(c3cc(Cl)ccc3CN3CCN(C(=O)OC(C(F)(F)F)C(F)(F)F)CC3)CC2)C1 [Example 212, 1,1,1,3,3,3-Hexafluoropropan-2-yl 4-(4-chloro-2-(2-(methylsulfonyl)-2,7-diazaspiro[3.5]nonan-7-yl)benzyl)piperazine-1-carboxylate] | ### (### is ≥75%) | ## (## is between 25 and 75%) | – |
| O=C(OC(C(F)(F)F)C(F)(F)F)N1CCC2(CC1)CN(Cc1cccc(C(F)(F)F)c1)C2 [Example 89, 1,1,1,3,3,3-Hexafluoropropan-2-yl 2-(3-(trifluoromethyl)benzyl)-2,7-diazaspiro[3.5]nonane-7-carboxylate] | ### (### is ≥75%) | ### (### is ≥75%) | – |
| Cc1cccc(CN2CC3(CCN(C(=O)OC(C(F)(F)F)C(F)(F)F)CC3)C2)c1 [Example 86, 1,1,1,3,3,3-Hexafluoropropan-2-yl 2-(3-methylbenzyl)-2,7-diazaspiro[3.5]nonane-7-carboxylate] | ### (### is ≥75%) | ### (### is ≥75%) | – |
| O=C(OC(C(F)(F)F)C(F)(F)F)N1CCC2(CC1)CN(Cc1ccc(F)cc1)C2 [Example 93, 1,1,1,3,3,3-Hexafluoropropan-2-yl 2-(4-fluorobenzyl)-2,7-diazaspiro[3,5]nonane-7-carboxylate] | ### (### is ≥75%) | ### (### is ≥75%) | – |
| O=C(OC(C(F)(F)F)C(F)(F)F)N1CCC2(CC1)CN(Cc1c(Cl)cccc1N1CCN(C3CC3)CC1)C2 [Example 58, 1,1,1,3,3,3-Hexafluoropropan-2-yl 2-(2-chloro-6-(4-cyclopropvlpiperazin-1-yl)benzyl)-2,7-diazaspiro[3.5]nonane-7-carboxylate] | ### (### is ≥75%) | ### (### is ≥75%) | – |
| O=C(OC(C(F)(F)F)C(F)(F)F)N1CCC2(CC1)CN(Cc1c(N3CCOCC3)cccc1C(F)(F)F)C2 [Example 43, 1,1,1,3,3,3-Hexafluoropropan-2-yl 2-(2-morpholino-6-(trifluoromethyl)benzyl)-2,7-diazaspiro[3.5]nonane-7-carboxylate] | ### (### is ≥75%) | ## (## is between 25 and 75%) | – |
| O=C(OC(C(F)(F)F)C(F)(F)F)N1CCC2(CC1)CN(Cc1ccc(N3CCOCC3)cc1Cl)C2 [Example 79, 1,1,1,3,3,3-Hexafluoropropan-2-yl 2-(2-chloro-4-morpholinobenzyl)-2,7-diazaspiro[3.5]nonane-7-carboxylate] | ### (### is ≥75%) | ### (### is ≥75%) | – |
| CCN1CCC2(CCN(c3cc(C(F)(F)F)ccc3CN3CCN(C(=O)OC(C(F)(F)F)C(F)(F)F)CC3)CC2)C1 [Example 183, 1,1,1,3,3,3-Hexafluoropropan-2-yl 4-(2-(2-ethyl-2,8-diazaspiro[4.5]decan-8-yl)-4-(trifluoromethyl)benzyl) piperazine-1-carboxylate] | ### (### is ≥75%) | # (# is ≤25%) | – |
| O=C(OC(C(F)(F)F)C(F)(F)F)N1CCC2(CC1)CN(Cc1cccc(F)c1)C2 [Example 97, 1,1,1,3,3,3-Hexafluoropropan-2-yl 2-(3-fluorobenzyl)-2,7-diazaspiro[3.5]nonane-7-carboxylate] | ### (### is ≥75%) | ### (### is ≥75%) | – |

The remaining lines, values ahead:

| % Inh MGLL Brain (Mouse, μM) [1] | % Inh ABHD6 Brain (Mouse, μM) [2] | IC50 MGLL Brain (Mouse, μM) [1] | SMILES |
| --- | --- | --- | --- |
| ### (### is ≥75%) | # (# is ≤25%) | * * * | CS(=O)(=O)N1CCC2(CCN(c3cc(Cl)ccc3CN3CCN(C(=O)OC(C(F)(F)F)C(F)(F)F)CC3)C2)CC1 [Example 30, 1,1,1,3,3,3-Hexafluoropropan-2-yl 4-(4-chloro-2-(8-(methylsulfonyl)-2,8-diazaspiro[4.5]decan-2-yl)benzyl)piperazine-1-carboxylate] |
| ### (### is ≥75%) | # (# is ≤25%) | – | CC(=O)N1CCC2(CCN(c3cc(C(F)(F)F)ccc3CN3CCN(C(=O)OC(C(F)(F)F)C(F)(F)F)CC3)CC2)C1 [Example 189, 1,1,1,3,3,3-Hexafluoropropan-2-yl 4-(2-(2-acetyl-2,8-diazaspiro[4.5]decan-8-yl)-4-(trifliioromethyl)benzyl) piperazine-1-carboxylate] |
| ### (### is ≥75%) | # (# is ≤25%) | – | CC(=O)N1CCC2(CCN(c3cc(Cl)ccc3CN3CCN(C(=O)OC(C(F)(F)F)C(F)(F)F)CC3)CC2)C1 [Example 178, 1,1,1,3,3,3-Hexafluoropropan-2-yl 4-(2-(2-acetyl-2,8-diazaspiro[4.5]decan-8-yl)-4-chlorobenzyl)piperazine-1-carboxylate] |
| ### (### is ≥75%) | # (# is ≤25%) | – | CC(=O)N1CCC2(CCN(c3ccccc3CN3CCN(C(=O)OC(C(F)(F)F)C(F)(F)F)CC3)C2)C1 (stereo not drawn) [Example 166, 1,1,1,3,3,3-Hexafluoropropan-2-yl 4-(2-(7-acetyl-2,7-diazaspiro[4.4]nonan-2-yl)benzyl)piperazine-1-carboxylate] |
| ### (### is ≥75%) | ### (### is ≥75%) | – | Cc1ccccc1CN1CC2(CCN(C(=O)OC(C(F)(F)F)C(F)(F)F)CC2)C1 [Example 91, 1,1,1,3,3,3-Hexafluoropropan-2-yl 2-(2-methylbenzyl)-2,7-diazaspiro[3.5]nonane-7-carboxylate] |
| ### (### is ≥75%) | # (# is ≤25%) | – | CC(=O)N1CCC2(CC1)CN(c1cc(Cl)ccc1CN1CCN(C(=O)OC(C(F)(F)F)C(F)(F)F)CC1)C2 [Example 198, 1.1.1,3,3,3-Hexafluoropropan-2-yl 4-(2-(7-acetyl-2,7-diazaspiro[3.5]nonan-2-yl)-4-chlorobenzyl)piperazine-1-carboxylate] |
| # (# is ≤25%) | ### (### is ≥75%) | – | CC(=O)N1CCC2(CCN(c3cc(Cl)cc(CN4CCCC45CN(C(=O)OC(C(F)(F)F)C(F)(F)F)C5)c3)CC2)C1 [Example 234, 1,1,1,3,3,3-Hexafluoropropan-2-yl 5-(3-(2-acetyl-2,8-diazaspiro[4.5]decan-8-yl)-5-chlorobenzyl)-2,5-diazaspiro[3.4]octane-2-carboxylate] |
| ## (## is between 25 and 75%) | # (# is ≤25%) | – | CC(=O)N1CCCc2cccc(CN3CCC4(CC3)CCN(C(=O)OC(C(F)(F)F)C(F)(F)F)C4)c21 [Example 193, 1,1,1,3,3,3-Hexafluoropropan-2-yl 8-((1-acetyl-1,2,3,4-tetrahydroquinolin-8-yl)methyl)-2,8-diazaspiro[4.5]decane-2-carboxylate] |
| ## (## is between 25 and 75%) | ### (### is ≥75%) | – | CCN1CCCc2cccc(CN3CCC4(CC3)CN(C(=O)OC(C(F)(F)F)C(F)(F)F)C4)c21 [Example 31, 1,1,1,3,3,3-Hexafluoropropan-2-yl 7-((1-ethyl-1,2,3,4-tetrahydroquinolin-8-yl)methyl)-2,7-diazaspiro[3.5]nonane-2-carboxylate] |
| ## (## is between 25 and 75%) | ### (### is ≥75%) | – | O=C(OC(C(F)(F)F)C(F)(F)F)N1CC2(CCN(Cc3cccc(N4CCCC4)c3)CC2)C1 [Example 77, 1,1,1,3,3,3-Hexafluoropropan-2-yl 7-(3-(pyrrolidin-1-yl)benzyl)-2,7-diazaspiro[3.5]nonane-2-carboxylate] |
